Molecules are shown by their SMILES. Where two headings read alike, the source gives them in different places.

The subject of series [1] is Escherichia coli ATCC 8739. Kind of series: Bactericidal activity, CFU counting method. In kind it is cell-based. Conditions: E. coli ATCC 8739; for Number of CFU/mL (× 10^7): 18 h at 37 °C, Control 9.47, Control with DMSO 9.30. The method, then:
(§1) The bacterial cultures: Escherichia coli ATCC 8739 and Staphylococcus aureus ATCC 65389 were grown on Luria–Bertani Agar for 18 h at 37 ^∘ C. The strain suspension was prepared in 0.85% saline, with an optical density equivalent to a 0.5 McFarland standard. Next, the following mixtures were prepared: 180 μ L of sterile enriched broth (BTL), 10 μ L of the bacterial suspension and 10 μ L of the tested compound (range 0.1–50 μ g/mL) solubilized in DMSO. As a negative control, only DMSO was added. As a sterility control, 180 μ L of BTL and 20 μ L saline were used. The microtiter plate was incubated at 37 ^∘ C for 18 h. The colony forming unit (CFU) method was used to evaluate the microbial population. The experiment was repeated three times. Gentamicin was used as the reference antibiotic.

The test system of series [2] is Staphylococcus aureus ATCC 65389. Kind of series: Bactericidal activity, CFU counting method. In kind it is cell-based. The note with it: S. aureus ATCC 65389; for Number of CFU/mL (× 10^7): 18 h at 37 °C, Control 21.36, Control with DMSO 20.85; for less CFU/mL (reduction of the number of CFU/mL): versus control. The method, then: as §1
Series [3] can be described thus: MTT reduction cytotoxicity assay. It is filed as cell-based, human. Conditions: human, AGS cells (human gastric adenocarcinoma), 24 h, read-out: mean percentage of viable cells ± SD. The method, then: (§2) Cell cultures: The L929 mouse fibroblasts and human gastric adenocarcinoma cell line AGS were used for in vitro cytotoxicity assays. The cells were maintained under standard conditions (37 ^∘ C, 5% CO 2 ) in 25 cm^2 tissue culture flasks in RPMI-1640 medium supplemented with 10% fetal bovine serum (FBS) and antibiotics: 100 U/mL penicillin and 100 μ g/mL streptomycin. The cell suspension containing 10 ^8 cells in 1 mL, was obtained by treatment of confluent monolayers with 0.25% trypsin solution, washed and subcultured. Cell cultures were supplemented with medium to maintain them in log phase growth. The viability of the cells was assessed by exclusion of trypan blue dye.
(§3) Measurements of cellular metabolic activity and global growth inhibition: L929 cells were seeded into 96-well plates (2 × 10 ^5 cells/well) for 24 h, at 37 ^∘ C, 5% CO2 . Tested compounds 5a–c, 6a–c, 7a–c, 8a–c, 9b,c, 10b,c, 12a and 13a were diluted serially in RPMI-1640 medium in concentrations of 50, 20, 10, 5, 0.5 and 0.1 μ g/mL, added to the cells (100 μ L/well), and incubated under standard conditions for 24 h. The potential harmful effect of lactones on L929 and AGS cells was assessed by the ability of the cells to reduce 3-(4,5-dimethylthiazol-2-yl)-2,5-diphenyltetrazolium bromide (MTT) to formazan. The solution of MTT (5 mg/mL in PBS), was added to each well and the plates were incubated for 4h at 37 ^∘ C. Formazan crystals were dissolved with acidic isopropanol (0.1 M HCl in absolute isopropanol) and the plates were read in a plate reader (Victor 2) at 570 nm. The percentage of MTT reduction was calculated by comparing the absorbance of treated cells to that of untreated control cells. Results are expressed as the mean percentage of viable cells ± standard deviation (SD) of four independent experiments. Statistical significance was accepted at a p-value < 0.05.

Series [4] deals with AGS cell lines (human gastric adenocarcinoma). Kind of series: MTT reduction cytotoxicity assay. It is filed as cell-based. The note with it: for mean percentage of viable cells ± SD: 24 h. As to the method:
as §2, §3
A general note: Formazan colour is commonly taken as a measure of viable cells.

The nature of series [5]: MTT reduction cytotoxicity assay. In kind it is cell-based, mouse. The note with it: mouse, L929 cells (mouse fibroblasts), read-out: mean percentage of viable cells ± SD. As to the method:
as §2, §3

For series [6], the system named is L929 cell lines (mouse fibroblasts). Kind of series: MTT reduction cytotoxicity assay. The note with it: 24 h. It is filed as cell-based. The method, then: as §2, §3

Usually melting point stands for the temperature, or range, at which the solid turns liquid. Regarding `C[C@@H]1CC(=O)O[C@@H]1C(O)c1ccc(F)cc1` (relative stereo) [13c, Cis-5-((4-fluorophenyl)(hydroxy)methyl)-dihydro-4-methylfuran-2(3H)-one], the melting point fell in the range of 118 to 119 °C.

The compound `C[C@@H]1CC(=O)O[C@H]1C(O)c1ccccc1` (relative stereo) [12b, Trans-dihydro-5-(hydroxy(phenyl)methyl)-4-methylfuran-2(3H)-one] yielded a melting point of 86 to 87 °C.

For orientation: IC50 means the concentration at which inhibition is half-maximal. A low value points to inhibition by little substance. Consider `C[C@@H]1CC(=O)O[C@H]1[C@@H](O)c1cccc2ccccc12` (mixture of isomers) [12a, Trans-dihydro-5-((S)-hydroxy(naphthalen-1-yl)methyl)-4-methylfuran-2(3H)-one], for which, in series [1], the “Number of CFU/mL (× 10^7)” value was 9.43 × 10^7 CFU/mL. Moreover, in series [2], the “bactericidal activity (in words)” value is on record as “did not show bactericidal activity” and the “Number of CFU/mL (× 10^7)” value is on record as 21.15 × 10^7 CFU/mL. Besides, in series [3], the viability at 24 h, 0.1 μg/mL came out at 39 ± 0.09%; the viability at 24 h, 0.5 μg/mL worked out at 26 ± 0.05%; the viability at 24 h, 5 μg/mL amounted to 22 ± 0.09%; the viability at 24 h, 10 μg/mL stood at 18 ± 0.05%. For the same compound, in series [3], the viability at 24 h, 20 μg/mL was 13 ± 0.08% and the viability at 24 h, 50 μg/mL came out at 9 ± 0.1%. This compound also returned an IC50 in series [4] (Homo sapiens) of 4.3 µM. In series [5], the viability at 24 h, 0.1 μg/mL was found to be 19 ± 0.15%; the viability at 24 h, 0.5 μg/mL amounted to 15 ± 0.05%; the viability at 24 h, 5 μg/mL turned out to be 10 ± 0.02%; the viability at 24 h, 10 μg/mL worked out at 8 ± 0.06%. In series [5], the viability at 24 h, 20 μg/mL amounted to 3 ± 0.03% and the viability at 24 h, 50 μg/mL was found to be 2 ± 0.06%.

`C[C@@H]1CC(=O)O[C@@H]1C(I)c1ccccc1` (relative stereo) [11b, Cis-dihydro-5-(iodo(phenyl)methyl)-4-methylfuran-2(3H)-one] displayed a melting point of 86 to 87 °C.

For `C[C@@H]1CC(=O)O[C@@H]1C(I)c1ccc(F)cc1` (relative stereo) [11c, Cis-5-((4-fluorophenyl)iodomethyl)-dihydro-4-methylfuran-2(3H)-one], the melting point fell in the range of 118 to 119 °C.

Take `C[C@@H]1CC(=O)O[C@H](c2cccc3ccccc23)[C@H]1Cl` (relative stereo) [5a, Trans,trans-5-chloro-tetrahydro-4-methyl-6-(naphthalen-1-yl)pyran-2-one]: the melting point lay in the range of 157 to 158 °C. Besides, the “Number of CFU/mL (× 10^7)” value in series [1] is recorded as 6.41 × 10^7 CFU/mL. In series [2], the “Number of CFU/mL (× 10^7)” value is 2.74 × 10^7 CFU/mL and the “less CFU/mL (reduction of the number of CFU/mL)” value is 87%. For the same compound, in series [3], the viability at 24 h, 0.1 μg/mL stood at 54 ± 0.07%; the viability at 24 h, 0.5 μg/mL was determined as 48 ± 0.05%; the viability at 24 h, 5 μg/mL is 43 ± 0.09%; the viability at 24 h, 10 μg/mL amounted to 27 ± 0.1%. For the same compound, in series [3], the viability at 24 h, 20 μg/mL stood at 18 ± 0.08% and the viability at 24 h, 50 μg/mL was determined as 15 ± 0.01%. The IC50 in series [4] (Homo sapiens) was 1.9 µM. In series [5], the viability at 24 h, 0.1 μg/mL was 17 ± 0.09%; the viability at 24 h, 0.5 μg/mL was 15 ± 0.02%; the viability at 24 h, 5 μg/mL amounted to 10 ± 0.03%; the viability at 24 h, 10 μg/mL was found to be 8 ± 0.07%. For the same compound, in series [5], the viability at 24 h, 20 μg/mL was 5 ± 0.06% and the viability at 24 h, 50 μg/mL turned out to be 1 ± 0.01%.

In turn, `CC1CC(=O)OC(c2ccccc2)C1Br` (stereo not drawn) [7b, Trans,trans-5-bromo-tetrahydro-4-methyl-6-phenylpyran-2-one] yielded a melting point of 111 to 112 °C. Further, the “Number of CFU/mL (× 10^7)” value in series [1] was 8.63 × 10^7 CFU/mL. Besides, the “Number of CFU/mL (× 10^7)” value in series [2] was 10.96 × 10^7 CFU/mL. In series [3], the viability at 24 h, 0.1 μg/mL stood at 40 ± 0.1%; the viability at 24 h, 0.5 μg/mL came to 25 ± 0.1%; the viability at 24 h, 5 μg/mL turned out to be 23 ± 0.02%; the viability at 24 h, 10 μg/mL came to 20 ± 0.06%. Moreover, in series [3], the viability at 24 h, 20 μg/mL stood at 14 ± 0.03% and the viability at 24 h, 50 μg/mL came out at 10 ± 0.06%. The half-inhibitory concentration (IC50) in series [4] (Homo sapiens) is 3.6 µM. In addition, in series [5], the viability at 24 h, 0.1 μg/mL was determined as 25 ± 0.03%; the viability at 24 h, 0.5 μg/mL was determined as 18 ± 0.08%; the viability at 24 h, 5 μg/mL was 13 ± 0.12%; the viability at 24 h, 10 μg/mL turned out to be 10 ± 0.05%. In addition, in series [5], the viability at 24 h, 20 μg/mL was 5 ± 0.15% and the viability at 24 h, 50 μg/mL is 2 ± 0.09%.

`C[C@@H]1CC(=O)O[C@H]1C(O)c1ccc(F)cc1` (relative stereo) [12c, Trans-5-((4-fluorophenyl)(hydroxy)methyl)-dihydro-4-methylfuran-2(3H)-one]: the melting point lay within 118 to 119 °C.

Regarding `CC1CC(=O)OC(c2ccc(F)cc2)C1Cl` (mixture of isomers) [6c, Cis,trans-5-chloro-6-(4-fluorophenyl)-tetrahydro-4-methylpyran-2-one], the entries for the “Number of CFU/mL (× 10^7)” value in series [1] and in series [2] were 2.06 × 10^7 CFU/mL and 7.39 × 10^7 CFU/mL, respectively. Further, the “less CFU/mL (reduction of the number of CFU/mL)” value in series [1] (versus control) is 70–78%; in series [2], 83%. Also, in series [4], the IC50 stood at 2.9 µM. In addition, the “mean percentage of viable cells ± SD” value in series [4] (0.1 μg/mL) is 49 ± 0.10%; in series [4] (0.5 μg/mL), 37 ± 0.05%; in series [4] (5 μg/mL), 28 ± 0.06%; in series [4] (10 μg/mL) it was 16 ± 0.10%; in series [4] (20 μg/mL), 14 ± 0.07%; in series [4] (50 μg/mL), 6 ± 0.08%. Moreover, the “mean percentage of viable cells ± SD” value in series [6] (0.1 μg/mL) turned out to be 24 ± 0.03%; in series [6] (0.5 μg/mL), 22 ± 0.05%; in series [6] (5 μg/mL), 18 ± 0.12%; in series [6] (10 μg/mL) it was 9 ± 0.05%; in series [6] (20 μg/mL), 4 ± 0.08%; in series [6] (50 μg/mL), 2 ± 0.02%.

For the compound `CC1CC(=O)OC(c2cccc3ccccc23)C1Cl` (mixture of isomers) [6a, Cis,trans-5-chloro-tetrahydro-4-methyl-6-(naphthalen-1-yl)pyran-2-one], the “Number of CFU/mL (× 10^7)” value is given as 7.58 × 10^7 CFU/mL in series [1] and 5.20 × 10^7 CFU/mL in series [2]. The compound further returned an IC50 in series [4] of 1.9 µM. The “mean percentage of viable cells ± SD” value in series [4] (0.1 μg/mL) is on record as 35 ± 0.06%; in series [4] (0.5 μg/mL) it was 28 ± 0.07%; in series [4] (5 μg/mL), 23 ± 0.09%; in series [4] (10 μg/mL) it was 19 ± 0.01%; in series [4] (20 μg/mL) it was 8 ± 0.09%; in series [4] (50 μg/mL), 8 ± 0.05%. Also, the “mean percentage of viable cells ± SD” value in series [6] (0.1 μg/mL) came to 15 ± 0.03%; in series [6] (0.5 μg/mL), 11 ± 0.08%; in series [6] (5 μg/mL) it was 9 ± 0.15%; in series [6] (10 μg/mL), 7 ± 0.07%; in series [6] (20 μg/mL) it was 6 ± 0.03%; in series [6] (50 μg/mL) it was 2 ± 0.09%.

As to `C[C@@H]1CC(=O)O[C@@H]1C(O)c1ccccc1` (relative stereo) [13b, Cis-dihydro-5-(hydroxy(phenyl)methyl)-4-methylfuran-2(3H)-one], the melting point was in the range of 89 to 91 °C.
